Reference: patent US20260191827A1, “COMPOUNDS FOR USE IN THE TREATMENT OF DISEASES AND CONDITIONS ASSOCIATED WITH NEURODEGENERATIVE DYSFUNCTION” (OnTrack Therapeutics Limited, priority 2022, published 2026)
Where a name gives a salt, the structure may show the parent alone.

Key:
[1] = system: sub-chronic PCP-induced deficits in recognition memory in rats; assay: Sub-chronic PCP-induced deficit in novel object recognition (NOR) paradigm; conditions: for Acquisition total exploration time / Retention total exploration time: mean ± s.e.m.
[2] = biological target: tropomyosin receptor kinase B (TrkB) (Homo sapiens, UniProt Q16620); conditions: known from background; cited from earlier work
Chain of tropomyosin receptor kinase B (TrkB) (Q16620 32-822, species assumed): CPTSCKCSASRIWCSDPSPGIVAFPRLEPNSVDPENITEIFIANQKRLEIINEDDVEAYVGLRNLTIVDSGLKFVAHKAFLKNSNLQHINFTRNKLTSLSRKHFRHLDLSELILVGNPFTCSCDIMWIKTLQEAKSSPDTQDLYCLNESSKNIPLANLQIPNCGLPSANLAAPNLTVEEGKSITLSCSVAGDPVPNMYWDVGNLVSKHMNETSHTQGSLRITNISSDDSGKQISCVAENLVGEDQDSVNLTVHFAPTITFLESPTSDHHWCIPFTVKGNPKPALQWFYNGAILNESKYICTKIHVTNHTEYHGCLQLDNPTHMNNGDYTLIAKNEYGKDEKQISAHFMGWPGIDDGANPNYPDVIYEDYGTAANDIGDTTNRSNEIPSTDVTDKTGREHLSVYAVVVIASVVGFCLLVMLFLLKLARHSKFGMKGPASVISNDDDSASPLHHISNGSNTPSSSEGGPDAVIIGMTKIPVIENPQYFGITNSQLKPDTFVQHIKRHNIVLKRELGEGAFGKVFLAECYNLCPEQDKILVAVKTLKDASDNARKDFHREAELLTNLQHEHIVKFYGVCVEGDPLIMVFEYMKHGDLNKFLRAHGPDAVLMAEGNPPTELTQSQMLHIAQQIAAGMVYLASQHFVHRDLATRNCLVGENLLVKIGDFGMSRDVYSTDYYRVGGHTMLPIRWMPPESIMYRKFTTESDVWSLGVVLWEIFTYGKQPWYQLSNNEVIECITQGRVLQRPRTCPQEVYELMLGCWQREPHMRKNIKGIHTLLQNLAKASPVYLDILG

[3] = system: scopolamine-induced impairment in cognition; conditions: normal healthy humans, donepezil 10 mg; cited from earlier work
[4] = system: scopolamine-induced cognitive deficit in mice; assay: Scopolamine-induced cognitive deficit, T-maze spontaneous alternation
Method: 60 male CD-1 mice (Janvier; Le Genest St Isle—France) were used for the study, with 10 animals per group.
Animals in the API groups were pre-treated (p.o.) once a day for 30 days, the last treatment was given 1 h before the T-maze test.
Compound of Formula I or its vehicle was administered at 5 ml/kg using p.o. route. The vehicle was 5% DMSO/0.5% methylcellulose in water. Fresh compound solution was prepared daily as following: the required amount of compound will be dissolved in 100% DMSO and then the required amount of 0.5% methylcellulose in water was added.
On the day of the T-maze, the last treatment was given 1 h before the task.
Donepezil (donepezil hydrochloride) was prepared in saline at a concentration of 0.03 mg/ml and was given p.o. at a dosage volume of 10 ml/kg 1 h before the T-maze trial start.
Scopolamine was prepared in saline (vehicle) at a concentration of 0.089 mg/ml (free base) and was given i.p. at a dosage volume of 10 ml/kg 30 min before the T-maze trial start.
The T-maze consists of 2 choice arms and 1 start arm mounted to a square centre. Sliding doors are provided to close specific arms during the force choice alternation task.
The experimental protocol consists of one single session, which starts with 1 “forced-choice” trial, followed by 14 “free-choice” trials. In the first “forced-choice” trial, the animal was confined for 5 s in the start arm and then was released while either the left or right goal arm was blocked by closing the sliding door. The animal then negotiated the maze, and eventually entered the open goal arm, and returned to the start position.
Immediately after the return of the animal to the start position, the left or right goal door was opened, and the animal was allowed to choose freely between the left and right goal arm (“free choice trials).
The animal was considered to have entered an arm when it placed its four paws in the arm.
A session was terminated, and the animal was removed from the maze as soon as 14 free-choice trials had been performed or 10 min have elapsed, whatever event occurred first.
The percentage of spontaneous alternations were calculated as number of spontaneous alternations divided by 14 possible free choice.
Statistical analysis was assessed using Anova followed by Fischer's Protected Least Significant Difference for pairwise comparison. p level <0.05 was deemed significant.

[5] = system: 5XFAD mice; conditions: repeated administration, WO2020/033604; cited from earlier work
[6] = system: animal model of Alzheimer's disease; conditions: low dose; Chen et al., 2021; cited from earlier work
[7] = 20-day phase (day 20), scPCP rats, acute risperidone 0.1 mg/kg i.p. 60 min before test
[8] = acute phase (day 1), scPCP rats, risperidone 0.1 mg/kg i.p. 60 min before test
[9] = 20-day once-daily treatment, scPCP rats, 10 mg/kg p.o.
[10] = 20-day once-daily treatment, scPCP rats, 30 mg/kg p.o.
[11] = acute treatment, scPCP rats, 10 mg/kg p.o. 120 min before test
[12] = acute treatment, scPCP rats, 30 mg/kg p.o. 120 min before test

Compound: Cc1nc2n(c(=O)c1CCN1CCC(c3noc4cc(F)ccc34)CC1)CCCC2 [Risperidone, risperidone, reference compound]
- Acquisition total exploration time [1, 7]: 25.5 ± 3.4 s
- Retention total exploration time [1, 7]: 17.8 ± 1.1 s
- Acquisition total exploration time [1, 8]: 22.81 ± 4.03 s
- Retention total exploration time [1, 8]: 23.10 ± 2.92 s
- discrimination index (DI) ([1]; acute phase, risperidone 0.1 mg/kg i.p., versus scPCP without treatment and test compound (FIG. 4)): higher
- rescue of deficits induced by scPCP in NOR ([1]; risperidone dosed acutely): able to rescue the deficits induced by scPCP

Compound: O=c1cc(-c2ccccc2)oc2c(O)c(O)ccc12 [tropoflavin, 7,8-dihydroxyflavone]
- TrkB activity [2]: potent and selective agonist

Compound: COc1cc2c(cc1OC)C(=O)C(CC1CCN(Cc3ccccc3)CC1)C2 (stereo not drawn) [Donepezil, donepezil hydrochloride, reference compound]
- scopolamine-induced impairment in cognition (power of attention, continuity of attention, quality of working memory, speed of memory) [3]: significantly attenuated
- Spontaneous alternation (%) ([4]; Scopolamine 0.89 mg/kg i.p., Donepezil 0.3 mg/kg p.o. 1 h before T-maze, hydrochloride): 65.0%
- Spontaneous alternation (%) ([4]; Scopolamine 0.89 mg/kg i.p., Donepezil 0.3 mg/kg p.o. 1 h before T-maze, listed as donepezil, hydrochloride): 65%
- effect on scopolamine-induced decline in cognitive function ([4]; donepezil 0.3 mg/kg, statistically significant): ameliorated

Compound: N#Cc1ccc(-c2cc(=O)c3ccc4[nH]c(C(F)(F)F)nc4c3o2)cc1 [compound of Formula I, 4-(6-oxo-2-(trifluoromethyl)-3,6-dihydrochromeno [7,8-d]imidazol-8-yl)benzonitrile]
- synaptic loss [5]: able to prevent synaptic loss
- dose effect in Alzheimer's disease animal model [6]: saturation effect
- spontaneous alternations in comparison to vehicle in scopolamine-treated mice ([4]; 30 days treatment prior to scopolamine, statistically significant): increased percentage of spontaneous alternations
- Spontaneous alternation (%) ([4]; Saline (healthy mice), Compound of Formula I high dose 10 mg/kg p.o. once a day for 30 days, 10 mg/kg): 64%
- Spontaneous alternation (%) ([4]; Saline (healthy mice), Compound of Formula I high dose 10 mg/kg p.o. once a day for 30 days, listed as Compound of Formula I, 10 mg/kg): 64.3%
- Spontaneous alternation (%) ([4]; Scopolamine, Compound of Formula I high dose 10 mg/kg p.o. once a day for 30 days, 10 mg/kg): 56%
- Spontaneous alternation (%) ([4]; Scopolamine, Compound of Formula I high dose 10 mg/kg p.o. once a day for 30 days, listed as Compound of Formula I, 10 mg/kg): 55.7%
- Spontaneous alternation (%) ([4]; Scopolamine, Compound of Formula I low dose 5 mg/kg p.o. once a day for 30 days, 5 mg/kg): 56%
- Spontaneous alternation (%) ([4]; Scopolamine, Compound of Formula I low dose 5 mg/kg p.o. once a day for 30 days, listed as Compound of Formula I, 5 mg/kg): 55.7%
- effect on cognition in healthy animals ([4]; healthy mice, 10 mg/kg, 30 days): did not impair cognition in healthy animals
- Acquisition total exploration time [1, 9]: 24.6 ± 3.4 s
- Retention total exploration time [1, 9]: 19.0 ± 1.4 s
- Acquisition total exploration time [1, 10]: 26.1 ± 3.1 s
- Retention total exploration time [1, 10]: 20.8 ± 1.2 s
- discrimination index (DI) ([1]; 20-day treatment, 30 mg/kg, compared to animals without treatment, P<0.015 (FIG. 8)): statistically significant increase
- amount of time spent exploring the familiar and novel object in the retention trial ([1]; 20-day treatment, scPCP rats, 10 & 30 mg/kg p.o., P<0.01 (FIG. 7)): dose dependent statistically significant effect
- Acquisition total exploration time [1, 11]: 21.75 ± 2.46 s
- Retention total exploration time [1, 11]: 22.55 ± 1.60 s
- Acquisition total exploration time [1, 12]: 25.49 ± 3.04 s
- Retention total exploration time [1, 12]: 26.18 ± 2.11 s
- amount of time exploring the novel or familiar object in the retention trial ([1]; acute treatment, scPCP rats, 10 & 30 mg/kg p.o. (FIG. 3)): not shown to have a difference
- rescue of deficits induced by scPCP in NOR ([1]; dosing for a 20-day period): able to rescue the scPCP in a dose dependent manner
